Experimental data taken from patent US7232659B1, “Multiplex analysis for high throughput discrimination of GPCR agonists and antagonists” (STC.UNM, priority 2003, dated 2007).
Residues, ends and D or L forms follow the SMILES beside them. *: point of attachment. For = O=C*

How the values were obtained:
[1] = biological target: T1, β2AR-GFP with Gαsβ1γ2 on Ni beads (Homo sapiens, UniProt P07550); test: ARG assembly assay on G protein coated beads, flow cytometry; format: biochemical; settings: for slope of GFP/bead versus β2AR-GFP concentration: dobutamine relative to salbutamol
T1 construct: expressed in transfected cells; host or cells: receptor fusion: U937 cells, solubilized membranes
T1 sequence (P62873 2-340): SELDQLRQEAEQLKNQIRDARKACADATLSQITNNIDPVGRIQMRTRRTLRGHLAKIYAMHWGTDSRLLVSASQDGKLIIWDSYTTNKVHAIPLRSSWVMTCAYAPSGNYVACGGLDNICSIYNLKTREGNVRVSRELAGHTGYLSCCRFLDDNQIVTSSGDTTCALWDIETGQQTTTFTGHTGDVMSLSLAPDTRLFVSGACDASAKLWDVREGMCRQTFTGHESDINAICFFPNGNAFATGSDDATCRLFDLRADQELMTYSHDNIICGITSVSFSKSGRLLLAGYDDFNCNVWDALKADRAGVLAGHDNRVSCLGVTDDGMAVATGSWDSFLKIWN
T1 sequence (P07550 whole entry, the tested form may be a part): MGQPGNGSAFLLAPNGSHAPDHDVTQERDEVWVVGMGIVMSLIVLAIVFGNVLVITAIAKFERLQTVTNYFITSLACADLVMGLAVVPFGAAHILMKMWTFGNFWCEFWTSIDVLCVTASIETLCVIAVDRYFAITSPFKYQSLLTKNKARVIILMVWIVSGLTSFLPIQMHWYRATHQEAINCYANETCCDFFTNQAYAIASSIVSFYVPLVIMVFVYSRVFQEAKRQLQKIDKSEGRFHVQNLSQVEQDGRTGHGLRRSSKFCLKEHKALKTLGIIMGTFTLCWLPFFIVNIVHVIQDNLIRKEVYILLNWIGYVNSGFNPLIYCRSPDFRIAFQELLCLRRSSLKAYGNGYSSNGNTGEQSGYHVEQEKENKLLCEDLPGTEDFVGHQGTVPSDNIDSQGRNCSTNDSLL
T1 sequence (P59768 2-68, further chain): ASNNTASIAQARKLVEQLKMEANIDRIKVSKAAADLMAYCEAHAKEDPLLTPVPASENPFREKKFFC
T1 sequence (P63092 other isoform, or with tags, fused parts or gaps, further chain): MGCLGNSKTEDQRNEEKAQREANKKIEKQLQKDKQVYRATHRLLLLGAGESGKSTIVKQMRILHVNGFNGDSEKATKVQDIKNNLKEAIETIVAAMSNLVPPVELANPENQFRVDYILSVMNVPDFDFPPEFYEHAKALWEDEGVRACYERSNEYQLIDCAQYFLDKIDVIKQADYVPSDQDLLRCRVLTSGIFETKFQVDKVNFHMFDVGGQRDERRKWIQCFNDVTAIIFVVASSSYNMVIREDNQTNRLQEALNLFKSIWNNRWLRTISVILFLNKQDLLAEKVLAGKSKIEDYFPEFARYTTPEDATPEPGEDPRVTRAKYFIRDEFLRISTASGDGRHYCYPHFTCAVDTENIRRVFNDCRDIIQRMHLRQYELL
Procedure: ARG Assembly Assay on G Protein Coated Beads—Coating of the Ni beads with heterotrimeric G proteins has been described before in detail (10). Briefly, 25 pmol of the desired α subunit and 25 pmol of hexahistidine-tagged β1γ2 were mixed with 2.5 μl of a 50% slurry of DCNi beads (2.5×10^5 beads/μl) and 190 μl of HPSM containing 0.1% dodecyl maltoside and 1 mM dithiothreitol, then kept in suspension by rocking at 4–7° C. for one hour. The beads were then centrifuged for 30 seconds at 1,500×gmax, the supernatant was removed, and the beads were resuspended in 50 μl of the buffer. This provided 25 aliquots of 24,000 G protein coated beads, for 25 ARG assembly assays (some beads were lost to surfaces). A ten microliter ARG assembly assay generally consisted of two microliters of solubilized receptor preparation, two microliters of desired ligand, four microliters of HPSM containing 0.1% dodecyl maltoside, and two microliters of G protein coated beads. Nonspecific fluorescence was defined in the presence of 0.1 mM GTPγS. These suspensions were mixed on an orbital mixer for 2 hours, brought to 200 μl with HPSM containing 0.1% dodecyl maltoside, transferred to a 12×75 mm tube, and immediately analyzed by flow cytometry for bead fluorescence. For kinetic data, tubes were removed from the cytometer after twenty seconds, 2 μl of 10^−2 M GTPγS was added and mixed, and the tubes were returned to the cytometer for measurement of the bead fluorescence. The cytometer data were converted to alphanumeric form and binned into one second intervals using the FACSQuery program (available free from Bruce Edwards), which provides a series of mean channel fluorescence (MCF) values in an Excel file.

[2] = biological target: T2, FPR-GFP (R^F) with Gαi3β1H6γ2 on DCNi beads (Homo sapiens, UniProt P21462); test: Standard LRG assembly assay with FPR-GFP on G protein beads, flow cytometry; format: biochemical
T2 construct: host or cells: receptor fusion: transfected cells (U937 named for FPR), solubilized membranes; β1H6γ2: Sf9 insect cells
T2 sequence (P21462 whole entry, the tested form may be a part): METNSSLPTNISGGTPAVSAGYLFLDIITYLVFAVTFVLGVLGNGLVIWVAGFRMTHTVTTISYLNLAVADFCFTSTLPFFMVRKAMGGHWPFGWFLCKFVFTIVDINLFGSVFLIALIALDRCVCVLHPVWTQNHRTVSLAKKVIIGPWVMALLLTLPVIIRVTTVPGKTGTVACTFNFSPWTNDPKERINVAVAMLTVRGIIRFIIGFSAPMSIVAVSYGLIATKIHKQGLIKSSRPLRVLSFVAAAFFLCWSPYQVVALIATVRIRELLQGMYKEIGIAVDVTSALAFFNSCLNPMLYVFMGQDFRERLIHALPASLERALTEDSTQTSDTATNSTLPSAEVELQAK
T2 sequence (P08754 2-354 partner limits assumed): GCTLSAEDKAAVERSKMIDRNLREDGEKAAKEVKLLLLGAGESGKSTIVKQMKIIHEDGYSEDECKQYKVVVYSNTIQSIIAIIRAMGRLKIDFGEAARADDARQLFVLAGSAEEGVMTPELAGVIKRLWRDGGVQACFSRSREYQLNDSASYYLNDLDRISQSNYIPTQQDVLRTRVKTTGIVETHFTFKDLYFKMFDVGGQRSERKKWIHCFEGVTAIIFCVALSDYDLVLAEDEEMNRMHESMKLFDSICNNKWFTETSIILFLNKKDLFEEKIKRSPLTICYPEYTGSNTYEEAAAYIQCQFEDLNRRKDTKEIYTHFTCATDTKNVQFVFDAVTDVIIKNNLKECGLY
T2 sequence (P62873 2-340 partner limits assumed): as the sequence (P62873 2-340) above
T2 sequence (P59768 2-68 partner limits assumed): as the sequence (P59768 2-68, further chain) above
Procedure: Standard LRG Assembly Assay. […] Each mixture was mixed by pipetting to ensure a uniform starting suspension of the beads in 96 V-well plates (Costar), and then mixed at low speed on a vortex mixer at 7° for two hours. The 10 μl assays were individually brought to 200 μl with 0.1% dodecyl maltoside in buffer A in 12×75 mm tubes for flow cytometric measurement of fluorescence of the beads. LRG assembly was defined as the difference between fluorescence without GTPγS and that with GTPγS. All determinations were done in duplicate.

β2AR in membranes = settings: membrane binding assays (3); cited from earlier work
[3] = test system: adenylyl cyclase activity via β2AR in membranes; settings: membranes (3); cited from earlier work

| SMILES | slope of GFP/bead versus β2AR-GFP concentration ([1]; saturating agonist) | percent ARG form (β2AR in membranes) [%] | efficacy (adenylyl cyclase activity compared to isoproterenol) [3] [%] | further results |
| --- | --- | --- | --- | --- |
| Nc1nc2c(ncn2[C@@H]2O[C@H](COP(=O)(O)OP(=O)(O)OP(O)(O)=S)[C@@H](O)[C@H]2O)c(=O)[nH]1 [GTPγS, guanosine 5′-3-O-(thio)triphosphate] | – | – | – | fluorescence on G protein beads with GTPγS added ([1]; 40 nM β2AR-GFP, 1 mM isoproterenol, 0.1 mM GTPγS): about 10,000 β2AR-GFP/bead |
| CC(CCc1ccc(O)cc1)NCCc1ccc(O)c(O)c1 (stereo not shown) [dobutamine] | ⅔ | – | – | rate of ternary complex disassembly after GTPγS ([1]; 0.1 mM GTPγS): 0.09 s⁻¹; maximal ARG/bead level relative to the full agonist isoproterenol ([1]; dose-response, 20 nM β2AR-GFP): ten; time course of ARG assembly ([1]; saturating agonist, 40 nM β2AR-GFP): ≤ 1 h |
| CNC[C@H](O)c1ccc(O)c(O)c1 [epinephrine] | indistinguishable from isoproterenol | – | – | – |
| CSCC[C@H](NC=O)C(=O)N[C@@H](CC(C)C)C(=O)N[C@@H](Cc1ccccc1)C(=O)N[C@@H](Cc1ccccc1)C(=O)O [fMLFF] (For-MLFF-OH) | – | – | – | EC50 [2]: 27 nM; ratio of Kd (for LR) to EC50 (for LRG formation) [2]: 2.8 |
| CC(Cc1ccc(O)cc1)NCC(O)c1ccc(O)c(O)c1 (stereo not shown) [hydroxybenzylisoproterenol] | – | 93 | 110 | – |
| CC(C)NCC(O)c1ccc(O)c(O)c1 (stereo not shown) [isoproterenol] | – | 80 | 100 | – |
| NC[C@H](O)c1ccc(O)c(O)c1 [norepinephrine] | indistinguishable from isoproterenol | – | – | – |
| CC(C)(C)NCC(O)c1ccc(O)c(CO)c1 (stereo not shown) [salbutamol] | – | – | 20 | – |
| CC(C)NCC(O)c1ccc(O)c(NS(C)(=O)=O)c1 (stereo not shown) [soterenol] | – | 58 | 8 | – |
